Measurements as given in patent publication US20220395490A1, “TREATMENT OF ARTHRITIS” (Inflazome Limited, priority 2019, published 2022).
Read-outs that look alike come from different tables or passages of the source.

What was measured:
[1] = test system: MSU-induced knee inflammation (gout) in male Wistar rats; assay: Prophylactic efficacy in rodent model of MSU-induced knee inflammation (gout); assay type: in vivo; conditions: for effect on pain associated with MSU-induced knee edema (mechanical allodynia, von Frey) / inhibition of the MSU-stimulated knee edema: 10 mg/kg once daily oral
Description: To determine the oral anti-inflammatory and anti-nociceptive efficacy of prophylactic treatment with the compound of formula (I) in a rodent model MSU-induced knee inflammation (gout) in male Wistar rats.
A. Preparation of MSU crystals: • 1. 4 g uric acid was dissolved in 800 ml 0.03 N NaOH and heated to 60° C. NaOH was added as required to maintain pH 8.9. The solution was stored overnight at 4-8° C. • 2. Crystals were filtered, washed and dried. • 3. Crystals were suspended in sterile saline just prior to use.
B. Efficacy Study: • 1. […] DAY −1. Baseline readings were taken
Baseline knee diameters were measured by digital caliper.
Baseline responses to mechanical allodynia, as measured by von Frey fibres, were recorded. • 3. DAY 0:
a. The rats were weighed and dosed by oral gavage with vehicle, prednisolone (10 mg/kg) or the compound of formula (I) (1, 3 or 10 mg/kg)
b. One hour after dosing, rats in Groups 1-5 were anesthetized and injected IA into the left knee with 2 mg MSU in 50 μl saline. • 4. DAY 1:
a. Rats were weighed and dosed as on DAY 0.
b. One hour after dosing, mechanical allodynia and knee diameters were measured and recorded. • 5. DAY 2:
b. One hour after dosing, mechanical allodynia and knee diameters were measured and recorded.
c. Four hours after final dosing, terminal bleeds were collected.

[2] = test system: MSU-induced knee inflammation (gout) in male Wistar rats; assay type: in vivo; conditions: for left knee diameter on DAY 3: vehicle group 15.0 mm; for response to mechanical allodynia on DAY 3: vehicle group 5.8; for reduction in the MSU-induced edema and pain: daily
Description: To determine the oral anti-inflammatory and anti-nociceptive efficacy of therapeutic treatment with the compound of formula (I) in a rodent model MSU-induced knee inflammation (gout) in male Wistar rats.
300 mg MSU crystal were suspended in 7.5 ml PBS (Sigma, Cat. D8662, lot. RNBG0405, exp. April 2019) to prepare a 40 mg/ml suspension. Material was kept in a sonicating water bath to maintain homogeneous suspension between injections. The rats were weighed.
The rats were anesthetized (SOP 1810), knees were shaved, and injected into the left knee with 50 μl MSU (2 mg) crystals using a 25 G needle fitted to a 1 ml syringe.
Group 1=PBS (Sigma, Cat. D8662, lot RNBG0405, exp. […]). Dosed at 1 ml/kg, PO.
Group 3=37 mg of the compound of formula (I) was dissolved in 3.7 ml PBS to prepare a 10 mg/ml solution. Dosed at 1 ml/kg, PO.
Test materials were made fresh daily. All rats were weighed and dosed by intraperitoneal injection or orally. Mechanical allodynia responses and knee diameters were recorded one hour post dosing.
On DAY 3, four hours after dosing, the rats were anesthetized and exsanguinated into pre-chilled K2 EDTA vacutainer tubes (Becton Dickinson, Cat. 367844, lot 6253682, exp. Jan. 31, 2018). The blood was processed to plasma, gently mixed and centrifuged at 4° C. 1800g for 10 minutes not later than 20 minutes from blood collection, which was stored in two 90 μl minimum volume and four 20 μl aliquots were prepared in labeled eppendorf tubes, and immediately stored frozen at −80° C. The carcasses were disposed of appropriately.

[3] = 1 mg/kg (Group 5) once daily oral, starting one hour prior to intra-articular 2 mg MSU
[4] = starting one hour prior to intra-articular 2 mg MSU

Row | Compound | reduction of knee edema [1, 3] [%] | reduction of pain response (mechanical allodynia) [1, 3] [%] | efficacy of intermediate dose compared with high dose (10 mg/kg) ([1]; 3 mg/kg (Group 4) once daily oral) | effect on pain associated with MSU-induced knee edema (mechanical allodynia, von Frey) [1, 4] | inhibition of the MSU-stimulated knee edema [1, 4] [%] | inhibition of the MSU-stimulated response across doses ([1]; once daily oral 1, 3, 10 mg/kg) | effect on animal weight ([1]; sodium salt in PBS, once daily oral, 1, 3 or 10 mg/kg) | left knee diameter on DAY 3 ([2]; 10 mg/kg PO once daily Day 1-3 after 2 mg MSU, baseline 12.3 mm) [mm] | response to mechanical allodynia on DAY 3 ([2]; 10 mg/kg PO once daily Day 1-3 after 2 mg MSU, baseline 14.5) | reduction in the MSU-induced edema and pain ([2]; 10 mg/kg orally) | effect on animal weight ([1]; prednisolone 10 mg/kg once daily oral) | left knee diameter on DAY 3 ([2]; Anakinra 50 mg/kg IP once daily Day 1-3 after 2 mg MSU, baseline 12.4 mm) [mm] | response to mechanical allodynia on DAY 3 ([2]; Anakinra 50 mg/kg IP once daily Day 1-3 after 2 mg MSU, baseline 13.9) | reduction in the MSU-induced edema and pain ([2]; Anakinra 50 mg/kg by peritoneal injection) | effect on animal health ([2]; rat, in vivo, ip)
1 | CC(C)n1ccc(S(=O)(=O)NC(=O)Nc2c3c(cc4c2CCC4)CCC3)n1 [compound of formula (I)] | 34 | 66 | no significant difference | complete blockade | 49 | significant dose-dependent inhibition | no significant effect | 13.6 | 12.5 grams of pressure | significant reduction |  |  |  |  | 
2 | C[C@]12C=CC(=O)C=C1CC[C@@H]1[C@@H]2[C@@H](O)C[C@@]2(C)[C@H]1CC[C@]2(O)C(=O)CO [prednisolone, reference compound] |  |  |  | significant insensitivity to pain | 52 |  |  |  |  |  | no significant effect |  |  |  | 
3 | Anakinra |  |  |  |  |  |  |  |  |  |  |  | 14.0 | 9.0 grams of pressure | significant reduction | no effect
